How the values were obtained:
[1] = Microsomal stability, human; type: in vitro ADME
[2] = In vivo RACE assay (pharmacokinetics, IP dosing); set-up: species or system wild type mice; details: mice
Text: In vivo RACE assay data was obtained for compound 1:
in conjunction with quantitative bioanalytical analysis to test its pharmacokinetics in wild type mice. […]

[3] = Plasma protein binding, mouse; type: in vitro ADME; details: for Plasma Protein Binding (% Bound): Mouse
TLR9 = target: T1, TLR9 (Homo sapiens, UniProt Q9NR96); assay: NF-κB luciferase in 697 pre-B leukemia cells, TLR9 ligand CpG DNA; details: 697 cells, 10 μM
T1 sequence (Q9NR96 26-1032): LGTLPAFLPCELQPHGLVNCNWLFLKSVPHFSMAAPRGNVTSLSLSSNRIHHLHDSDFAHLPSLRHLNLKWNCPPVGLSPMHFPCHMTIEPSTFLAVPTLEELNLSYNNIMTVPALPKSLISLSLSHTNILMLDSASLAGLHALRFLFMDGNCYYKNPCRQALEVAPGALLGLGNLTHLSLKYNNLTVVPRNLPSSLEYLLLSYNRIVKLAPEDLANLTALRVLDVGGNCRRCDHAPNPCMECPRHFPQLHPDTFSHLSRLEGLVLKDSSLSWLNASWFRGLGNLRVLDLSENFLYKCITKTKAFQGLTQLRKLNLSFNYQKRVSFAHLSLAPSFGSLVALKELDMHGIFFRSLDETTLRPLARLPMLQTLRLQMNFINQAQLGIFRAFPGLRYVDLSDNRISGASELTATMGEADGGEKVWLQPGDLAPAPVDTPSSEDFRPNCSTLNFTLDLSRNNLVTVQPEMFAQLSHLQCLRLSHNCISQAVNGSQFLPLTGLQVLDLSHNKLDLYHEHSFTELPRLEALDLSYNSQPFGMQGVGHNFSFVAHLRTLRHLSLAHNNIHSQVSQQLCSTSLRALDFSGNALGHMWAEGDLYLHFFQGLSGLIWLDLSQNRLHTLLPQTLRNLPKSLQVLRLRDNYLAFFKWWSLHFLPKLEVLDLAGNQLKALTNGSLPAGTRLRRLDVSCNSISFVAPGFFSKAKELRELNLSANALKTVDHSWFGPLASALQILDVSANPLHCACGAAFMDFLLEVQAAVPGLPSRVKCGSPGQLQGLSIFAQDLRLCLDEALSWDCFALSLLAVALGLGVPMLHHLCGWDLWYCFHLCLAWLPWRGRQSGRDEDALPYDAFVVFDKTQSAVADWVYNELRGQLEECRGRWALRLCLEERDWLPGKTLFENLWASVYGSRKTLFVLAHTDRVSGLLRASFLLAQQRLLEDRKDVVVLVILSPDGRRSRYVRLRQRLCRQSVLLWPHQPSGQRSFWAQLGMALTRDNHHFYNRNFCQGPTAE
Description: Luciferase activity was measured 24 h later (mean±SD; n=3).
Gene reporter assays: HEK293T or 697 cells containing integrated 5×NFκB-driven luciferase reporter gene were seeded into 96-well plates at 10^4 to 10^5 cells per well, and treated with respective inducers for 16 to 24 hours. […] The next day, cells were transfected with 50 ng pNF-κB-LUC (Clontech) and 5 ng Renilla luciferase gene driven by a constitutive TK promoter (pRL-TK; Promega) along with indicated plasmids. After 24 h of transfection in some experiments, cells were stimulated with various agents for 24 h or directly lysed and luciferase activities were assayed using the Dual Luciferase kit (Promega). The results for firefly luciferase activity were normalized to renilla luciferase activity. […] The mean results were obtained from triplicates.

[4] = tested on: IKKγ/NEMO, MYD88, FLIP, CARD6, APAF1 or NLRC4 over-expression; assay: Gene transfection NF-κB luciferase, HEK 293T; type: cell-based, human

Cc1ccc(S(=O)(=O)n2c(N)nc3ccccc32)cc1 [Compound 1]
Microsomal Stability (% Remaining at 1 hr) ([1]; Human, 1 hr): 41.78 % Remaining
Stability in microsomes (in words) ([1]; human): moderate
Tolerability ([2]; IP): well tolerated
Concentration (uM) 20 min ([2]; IP 15 mg/kg): 1.58 ± 0.06 µM
Concentration (uM) 120 min ([2]; IP 15 mg/kg): 0.12 ± 0.05 µM
Compound exposure (in words) ([2]; IP 30 mg/kg and 15 mg/kg, T=20 min): significant compound exposure
Concentration (uM) 20 min ([2]; IP 30 mg/kg): 5.24 ± 0.62 µM
Concentration (uM) 120 min ([2]; IP 30 mg/kg): 0.54 ± 0.04 µM
Plasma Protein Binding (% Bound) ([3]; 1 μM): 95.45 % Bound
Plasma Protein Binding (% Bound) ([3]; 10 μM): 94.91 % Bound
Plasma protein binding (in words) ([3]; mouse): high
Effect on NF-κB activity induced by TLR9 ligand CpG DNA (TLR9): did not inhibit
Impact on NF-κB in cells over-expressing IKKγ/NEMO, MYD88, FLIP, CARD6, APAF1 or NLRC4 [4]: No significant impact

Source: US20120046329A1, “MODULATORS OF NOD1 AND NOD2 SIGNALING, METHODS OF IDENTIFYING MODULATORS OF NOD1 AND NOD2 SIGNALING, AND USES THEREOF” (Sanford-Burnham Medical Research Institute, priority 2010, published 2012)
